Experimental data reported in paper PMC9218685, “Legume Plant Peptides as Sources of Novel Antimicrobial Molecules Against Human Pathogens” (Frontiers in Molecular Biosciences, 2022).
In brackets after ≈: the same amount, converted by molar mass. Ends that are not written are not given here. Peptide text beside a SMILES is read from it.

What was measured:
[1] = system: Acinetobacter baumannii (ATCC 17978); test: microbe, parasite or virus in culture; assay type: cell-based; conditions: for Activity against A. baumannii: 3 h, peptides ≤25 µM; for MBC Acinetobacter baumannii: ATCC 17978, 3 h
Excerpt: (§1) The following pathogenic bacterial strains were used: The Gram-positive Enterococcus faecalis (ATCC 29212), Staphylococcus aureus (HNCMO112011), Listeria monocytogenes (ATCC 19111) and the Gram-negative Pseudomonas aeruginosa (ATCC 27853), Escherichia coli (ATCC 8739), Salmonella enterica (ATCC 13076), Klebsiella pneumoniae (NCTC 13440), Acinetobacter baumannii (ATCC 17978) obtained from the ATCC (United States) and NCTC (National Collection of Type Cultures–England). For the antifungal experiment the Candida albicans W01 strain ([Ördögh et al., 2014]) was used. Antimicrobial activities of peptides against ∼10^7 log phase bacteria were tested in Potassium-Phosphate Buffer (PPB, pH 7.4) as described by [Jenei et al. (2020)] while anti-Candida assays were done according to [Szerencsés et al. (2021)]. The two-fold dilution series of peptides ranged from 25 μM to 0.125 μM, while that of the antibiotics ampicillin (Merck) and miconazole (Duchefa Biochemie) from […] to 0.1 μM. The lowest concentration of the antimicrobial agents, which completely eliminated viable bacteria or C. albicans were considered as the minimal bactericidal concentration (MBC) and minimal fungicidal concentration (MFC).
(§2) The minimal bactericidal concentrations (MBCs) were determined after 3 h of treatment of ∼10^7 log phase bacteria with 2-fold serial dilution of peptides from 25 µM to 0.8 µM. Only 25 of the 50 cationic M. truncatula peptides had activity at ≤25 µM (Supplementary Table S1). […] Three peptides were only active against two bacterial strains; NCR649 against L. monocytogenes and A. baumannii, NCR281 against L. monocytogenes and P. aeruginosa and NCR350 against A. baumannii and P. aeruginosa. […] None of the anionic NCR peptides affected the survival of the tested bacterial strains.

[2] = system: Pseudomonas aeruginosa (ATCC 27853); assay type: cell-based; conditions: for MBC Pseudomonas aeruginosa: ATCC 27853, 3 h
Excerpt: as §1, §2

Row | Compound | Activity against A. baumannii ([1]; ~10^7 log phase bacteria) | MBC Acinetobacter baumannii [1] [µM] | MBC Pseudomonas aeruginosa [2] [µM] | also measured
1 | CC1(C)S[C@@H]2[C@H](NC(=O)[C@H](N)c3ccccc3)C(=O)N2[C@H]1C(=O)O [Ampicillin, reference compound] | – | – | – | MBC ([1]; Acinetobacter baumannii, ATCC17978, ~10^7 log phase bacteria, Potassium-Phosphate Buffer pH 7.4, 3 h treatment, two-fold dilution series, lowest concentration completely eliminating viable bacteria, read-out: MBC, minimal bactericidal concentration against A. baumannii): 10200 µM (≈ 3580 µg/mL)
2 | CC[C@H](C)[C@H](NC(=O)[C@H](Cc1ccc(O)cc1)NC(=O)[C@H](CC(N)=O)NC(=O)[C@H](CCCNC(=N)N)NC(=O)[C@@H](NC(=O)[C@H](CCC(N)=O)NC(=O)[C@H](CCCNC(=N)N)NC(=O)[C@H](CS)NC(=O)[C@H](CC(=O)O)NC(=O)[C@H](CCCCN)NC(=O)[C@H](CC(N)=O)NC(=O)[C@@H](NC(=O)[C@@H](NC(=O)[C@H](CS)NC(=O)[C@H](CC(N)=O)NC(=O)[C@H](CCCNC(=N)N)NC(=O)[C@H](CO)NC(=O)[C@@H](NC(=O)[C@@H]1CCCN1C(=O)[C@H](CC(C)C)NC(=O)[C@@H](N)Cc1ccccc1)[C@@H](C)O)[C@@H](C)CC)[C@@H](C)O)C(C)C)C(=O)N[C@@H](C)C(=O)N[C@@H](CCCNC(=N)N)C(=O)N[C@@H](CS)C(=O)N[C@@H](CCCNC(=N)N)C(=O)N[C@@H](CCCCN)C(=O)NCC(=O)N[C@@H](CCC(N)=O)C(=O)N[C@@H](CS)C(=O)N[C@@H](CC(C)C)C(=O)N[C@@H](CCC(N)=O)C(=O)N[C@@H](CO)C(=O)N1CCC[C@H]1C(=O)N[C@H](C(=O)N[C@@H](CCCNC(=N)N)C(=O)O)C(C)C [NCR030] (H-FLPTSRNCITNKDCRQVRNYIARCRKGQCLQSPVR-OH; N-terminus assumed) | only against A. baumannii | 3.125 (≈ 12.9 µg/mL) | – | –
3 | CC[C@H](C)[C@H](NC(=O)[C@H](Cc1ccccc1)NC(=O)[C@@H](NC(=O)[C@H](CCCCN)NC(=O)[C@H](CC(=O)O)NC(=O)[C@@H]1CCCN1C(=O)[C@@H](N)Cc1ccccc1)[C@@H](C)CC)C(=O)NCC(=O)N[C@@H](CC(=O)O)C(=O)N[C@@H](CS)C(=O)N[C@@H](CCCCN)C(=O)N[C@H](C(=O)N[C@@H](CC(=O)O)C(=O)N[C@@H](CCCCN)C(=O)N[C@@H](CC(=O)O)C(=O)N[C@@H](CS)C(=O)N[C@@H](CCCCN)C(=O)N1CCC[C@H]1C(=O)N[C@@H](CCCCN)C(=O)N[C@@H](CCCNC(=N)N)C(=O)NCC(=O)N[C@H](C(=O)N[C@@H](CC(N)=O)C(=O)N[C@@H](Cc1ccccc1)C(=O)N[C@@H](CCCNC(=N)N)C(=O)N[C@@H](CS)C(=O)N[C@@H](CCCNC(=N)N)C(=O)N[C@@H](CCCCN)C(=O)NCC(=O)N[C@@H](CCCCN)C(=O)N[C@@H](CS)C(=O)N[C@@H](Cc1ccc(O)cc1)C(=O)N1CCC[C@H]1C(=O)N[C@@H](CCCNC(=N)N)C(=O)O)C(C)C)[C@@H](C)O [NCR032] (H-FPDKIFIGDCKTDKDCKPKRGVNFRCRKGKCYPR-OH; N-terminus assumed) | only against A. baumannii | 3.125 (≈ 12.6 µg/mL) | – | –
4 | CC[C@H](C)[C@H](NC(=O)[C@H](Cc1ccc(O)cc1)NC(=O)[C@H](CC(N)=O)NC(=O)[C@H](CCCCN)NC(=O)[C@@H](NC(=O)[C@H](CO)NC(=O)[C@@H]1CCCN1C(=O)[C@H](CS)NC(=O)[C@H](CC(=O)O)NC(=O)[C@H](CCCCN)NC(=O)[C@H](CC(=O)O)NC(=O)[C@@H](NC(=O)[C@@H](NC(=O)[C@H](CS)NC(=O)[C@@H](NC(=O)[C@H](CCCNC(=N)N)NC(=O)[C@@H](NC(=O)[C@@H](NC(=O)[C@@H]1CCCN1C(=O)[C@H](CC(C)C)NC(=O)[C@H](Cc1ccc(O)cc1)NC(=O)[C@@H](N)[C@@H](C)O)[C@@H](C)O)[C@@H](C)O)[C@@H](C)CC)[C@@H](C)CC)[C@@H](C)O)C(C)C)C(=O)NCC(=O)N[C@@H](CCCNC(=N)N)C(=O)N[C@@H](CS)C(=O)N[C@@H](CCCNC(=N)N)C(=O)N[C@@H](CCCCN)C(=O)NCC(=O)N[C@@H](Cc1ccc(O)cc1)C(=O)N[C@@H](CS)C(=O)N[C@@H](CCC(N)=O)C(=O)N[C@@H](C)C(=O)N[C@@H](CO)C(=O)N[C@@H](CCCCN)C(=O)N[C@@H](CC(C)C)C(=O)N[C@@H](CCCNC(=N)N)C(=O)O [NCR042] (H-TYLPTTRICITDKDCPSVKNYIGRCRKGYCQASKLR-OH; N-terminus assumed) | – | – | 25 (≈ 104 µg/mL) | –
5 | CC[C@H](C)[C@H](NC(=O)[C@H](CC(N)=O)NC(=O)[C@H](Cc1c[nH]cn1)NC(=O)[C@@H]1CCCN1C(=O)[C@@H]1CCCN1C(=O)[C@H](CCSC)NC(=O)[C@H](CCCNC(=N)N)NC(=O)[C@@H]1CCCN1C(=O)[C@H](CS)NC(=O)[C@H](CC(=O)O)NC(=O)[C@H](CCCCN)NC(=O)[C@H](CC(=O)O)NC(=O)[C@@H](NC(=O)[C@H](CC(C)C)NC(=O)[C@H](CS)NC(=O)[C@@H]1CCCN1C(=O)[C@H](CCCNC(=N)N)NC(=O)[C@H](CC(C)C)NC(=O)[C@@H](NC(=O)[C@H](CCSC)NC(=O)CNC(=O)[C@@H](N)Cc1ccccc1)[C@@H](C)O)[C@@H](C)O)C(=O)N[C@@H](CCCCN)C(=O)N[C@@H](CS)C(=O)N[C@@H](CCCNC(=N)N)C(=O)N[C@@H](CCCCN)C(=O)NCC(=O)N[C@@H](Cc1c[nH]cn1)C(=O)N[C@@H](CS)C(=O)N[C@H](C(=O)N1CCC[C@H]1C(=O)N[C@H](C(=O)NCC(=O)N[C@@H](CCCCN)C(=O)N1CCC[C@H]1C(=O)N[C@@H](Cc1ccccc1)C(=O)N[C@@H](CCCCN)C(=O)O)[C@@H](C)CC)C(C)C [NCR137] (H-FGMTLRPCLTDKDCPRMPPHNIKCRKGHCVPIGKPFK-OH; N-terminus assumed) | – | 25 (≈ 106 µg/mL) | – | –
6 | CC[C@H](C)[C@H](NC(=O)[C@H](CC(N)=O)NC(=O)[C@H](Cc1ccc(O)cc1)NC(=O)[C@H](CCC(N)=O)NC(=O)[C@H](CO)NC(=O)[C@@H](NC(=O)[C@H](CCCCN)NC(=O)[C@@H]1CCCN1C(=O)[C@H](CS)NC(=O)[C@H](CC(=O)O)NC(=O)[C@H](CCCCN)NC(=O)[C@H](CC(=O)O)NC(=O)[C@@H](NC(=O)[C@@H](NC(=O)[C@H](CS)NC(=O)[C@@H]1CCCN1C(=O)CNC(=O)[C@H](CO)NC(=O)[C@H](CC(N)=O)NC(=O)[C@@H](NC(=O)[C@H](Cc1ccc(O)cc1)NC(=O)[C@@H]1CCCN1C(=O)[C@@H](NC(=O)[C@H](CO)NC(=O)[C@H](CC(=O)O)NC(=O)[C@H](Cc1ccc(O)cc1)NC(=O)[C@@H](NC(=O)[C@@H](N)CO)C(C)C)[C@@H](C)CC)C(C)C)C(C)C)[C@@H](C)O)C(C)C)C(=O)N[C@@H](CCCNC(=N)N)C(=O)N[C@@H](CS)C(=O)N[C@@H](CCCNC(=N)N)C(=O)N[C@@H](CCCCN)C(=O)NCC(=O)N[C@@H](CCC(N)=O)C(=O)N[C@@H](CS)C(=O)N[C@@H](C)C(=O)N[C@@H](CCCNC(=N)N)C(=O)N[C@H](C(=O)N[C@@H](CCCNC(=N)N)C(=O)N[C@H](C(=O)O)C(C)C)[C@@H](C)CC [NCR361] (H-SVYDSIPYVNSGPCVTDKDCPKVSQYNIRCRKGQCARIRV-OH; N-terminus assumed) | – | – | 25 (≈ 113 µg/mL) | –
7 | VYDSKYFQIASPCVNDKDCPQFKNNNVRCRRGFCVNSGGATQKCLGCPSLK-OH (cysteines drawn unpaired) [NCR350] | active | 12.5 | 25 | Activity against P. aeruginosa ([2]; 3 h, ~10^7 log phase bacteria, peptides ≤25 µM): active
